This is an account of results in PMC8713164, “Development of a 1,2,4-Triazole-Based Lead Tankyrase Inhibitor: Part II” (Journal of Medicinal Chemistry, 2021).

Several values for one entry are separate records, joined by “and”; a condition that tells them apart may be missing. Identical values can stand only once. Like-named read-outs stand apart in the source and are kept apart here.

Experiment [1] deals with T1, TNKS2 (Homo sapiens, UniProt Q9H2K2).
T1 construct: TNKS2 (residues 873–1162); made in house
T1 sequence (Q9H2K2 873-1162): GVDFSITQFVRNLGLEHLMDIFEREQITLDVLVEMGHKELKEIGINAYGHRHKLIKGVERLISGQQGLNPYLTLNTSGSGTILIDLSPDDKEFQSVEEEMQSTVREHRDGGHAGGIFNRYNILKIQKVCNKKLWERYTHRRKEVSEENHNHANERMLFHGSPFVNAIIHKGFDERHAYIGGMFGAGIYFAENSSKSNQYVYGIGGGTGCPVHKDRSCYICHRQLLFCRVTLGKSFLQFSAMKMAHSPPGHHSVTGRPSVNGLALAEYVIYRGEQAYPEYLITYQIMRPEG
The experiment can be described thus: TNKS2 biochemical assay (unreacted NAD+ fluorescence). The conditions noted are these: TNKS2 5 nM, 500 nM NAD+, 20 h; quadruplicates; 95% confidence intervals in parentheses; 24: averages of multiple independent measurements; read-out: IC50 TNKS2. Here is the method:
New compounds were prepared in half-log dilution series, and the reactions were carried out in quadruplicates with protein and compound controls to exclude the effect of compound autofluorescence. All reactions were performed at ambient temperature. TNKS1 (20 nM) or TNKS2 (5 nM) was incubated for 20 h in assay buffer (50 mM Bis-Tris propane (BTP), pH 7.0, 0.5 mM Tris(2-carboxyethyl)phosphine (TCEP), 0.01% Triton X-100) with compound and 10 μM or 500 nM NAD^+, respectively.

For experiment [2], the system named is WNT/β-catenin signaling. As to the kind of experiment: cellular (HEK293) WNT/β-catenin signaling luciferase reporter assay. The format is cell-based, human. A general note: In a reporter assay the amount or activity of a reporter protein is the signal.
The mark [3] stands for this setting: Homo sapiens, HEK293, read-out: IC50 HEK293, HEK293 WNT/β-catenin signaling reporter assay, triplicates, 24: averages of multiple independent measurements.
[4] abbreviates: read-out: IC50 HEK293, HEK293 WNT/β-catenin signaling reporter assay, triplicates, 24: averages of multiple independent measurements.
[5] abbreviates: Homo sapiens, HEK293, read-out: IC50 HEK293.

In the case of `CCOc1ccc(-c2nnc([C@H]3C[C@H](NC(=O)c4cccc5nc(C)cnc45)C3)n2-c2ccccc2F)nc1` [Compound 27, N-(trans-3-(5-(5-Ethoxypyridin-2-yl)-4-(2-fluorophenyl)-4H-1,2,4-triazol-3-yl)cyclobutyl)-2-methylquinoxaline-5-carboxamide], the IC50 in experiment [1] is 1.1 nM; in experiment [2] (setting [3]), 2.4 nM.
On the same counts, the results for `CCOc1ccc(-c2nnc([C@H]3C[C@H](NC(=O)c4ccnc5cccnc45)C3)n2-c2ccccn2)nc1` [Compound 16a, N-(trans-3-(5-(5-Ethoxypyridin-2-yl)-4-(pyridin-2-yl)-4H-1,2,4-triazol-3-yl)cyclobutyl)-1,5-naphthyridine-4-carboxamide] are 5.8 nM and 36 nM.
With `O=C(N[C@H]1C[C@H](c2nnc(-c3ccccn3)n2-c2ccccc2F)C1)c1cccc2nccnc12` [Compound 30a, N-(trans-3-(4-(2-Fluorophenyl)-5-(pyridin-2-yl)-4H-1,2,4-triazol-3-yl)cyclobutyl)quinoxaline-5-carboxamide], the IC50 in experiment [1] is 1.6 nM; in experiment [2] (setting [3]), 0.29 nM; in experiment [2] (setting [4]), 0.286 nM.
As to `CCOc1ccc(-c2nnc(C34CC(NC(=O)c5ccnc6cccnc56)(C3)C4)n2-c2cccnc2)nc1` [Compound 20, N-(3-(5-(5-Ethoxypyridin-2-yl)-4-(pyridin-3-yl)-4H-1,2,4-triazol-3-yl)bicyclo[1.1.1]pentan-1-yl)-1,5-naphthyridine-4-carboxamide], the IC50 in experiment [1] amounted to 9.6 nM; in experiment [2] (setting [5]) it was 30 nM.
Take `CCOc1ccc(-c2nnc([C@H]3C[C@H](NC(=O)c4ccccn4)C3)n2-c2ccccc2)nc1` [Compound 11, N-(trans-3-(5-(5-Ethoxypyridin-2-yl)-4-phenyl-4H-1,2,4-triazol-3-yl)cyclobutyl)picolinamide]: the IC50 in experiment [1] came to 5.2 nM; in experiment [2] (setting [3]), 65 nM.
In the case of `CCOc1ccc(-c2nnc([C@H]3C[C@H](NC(=O)c4ccccn4)C3)n2-c2cccc(Cl)c2)nc1` [Compound 12, N-(trans-3-(4-(3-Chlorophenyl)-5-(5-ethoxypyridin-2-yl)-4H-1,2,4-triazol-3-yl)cyclobutyl)picolinamide], the IC50 in experiment [1] worked out at 13 nM; in experiment [2] (setting [3]), 83 nM.
Take `CC(C)Oc1ccc(-c2nnc([C@H]3C[C@H](NC(=O)c4ccccn4)C3)n2-c2ccccc2F)nc1` [Compound 8, N-(trans-3-(4-(2-Fluorophenyl)-5-(5-isopropoxypyridin-2-yl)-4H-1,2,4-triazol-3-yl)cyclobutyl)picolinamide]: the IC50 in experiment [1] stood at 12 nM; in experiment [2] (setting [3]) it was 110 nM.
As to `CCOc1ccc(-c2nnc([C@H]3C[C@H](NC(=O)c4ccccn4)C3)n2-c2ccc(C)s2)nc1` [Compound 13, N-(trans-3-(5-(5-Ethoxypyridin-2-yl)-4-(5-methylthiophen-2-yl)-4H-1,2,4-triazol-3-yl)cyclobutyl)picolinamide], the values for the IC50 in experiment [1] and in experiment [2] (setting [3]) were 4.6 nM and 37 nM, respectively.
`CCOc1ccc(-c2nnc([C@H]3C[C@H](NC(=O)c4ccnc5cc(F)cnc45)C3)n2-c2cccnc2)nc1` [Compound 17b, N-(trans-3-(5-(5-Ethoxypyridin-2-yl)-4-(pyridin-3-yl)-4H-1,2,4-triazol-3-yl)cyclobutyl)-7-fluoro-1,5-naphthyridine-4-carboxamide]: the results for the IC50 in experiment [1], in experiment [2] (setting [3]) and in experiment [2] (setting [4]) were 5.8 nM, 9.1 nM and 9 nM, respectively.
Take `CCOc1ccc(-c2nnc([C@H]3C[C@H](NC(=O)c4ccnc5cccnc45)C3)n2-c2cccnc2)nc1` [Compound 17a, N-(trans-3-(5-(5-Ethoxypyridin-2-yl)-4-(pyridin-3-yl)-4H-1,2,4-triazol-3-yl)cyclobutyl)-1,5-naphthyridine-4-carboxamide]: the IC50 came out at 4.5 nM in experiment [1] and 16 nM in experiment [2] (setting [3]).
Turning to `CCOc1ccc(-c2nnc([C@H]3C[C@H](NC(=O)c4ccnc5cc(F)cnc45)C3)n2-c2ccccn2)nc1` [Compound 16b, N-(trans-3-(5-(5-Ethoxypyridin-2-yl)-4-(pyridin-2-yl)-4H-1,2,4-triazol-3-yl)cyclobutyl)-7-fluoro-1,5-naphthyridine-4-carboxamide], the IC50 was 8.5 nM in experiment [1], 8.7 nM in experiment [2] (setting [3]) and 9 nM in experiment [2] (setting [4]).
Turning to `CCOc1ccc(-c2nnc([C@H]3C[C@H](NC(=O)c4cccc5cccnc45)C3)n2-c2ccc(C)s2)nc1` [Compound 23, N-(trans-3-(5-(5-Ethoxypyridin-2-yl)-4-(5-methylthiophen-2-yl)-4H-1,2,4-triazol-3-yl)cyclobutyl)quinoline-8-carboxamide], the IC50 in experiment [1] stood at 2.4 nM; in experiment [2] (setting [3]), 1 nM.
`CCOc1ccc(-c2nnc([C@H]3C[C@H](NC(=O)c4ccnc5cc(F)cnc45)C3)n2-c2ccc(C)s2)nc1` [Compound 22b, N-(trans-3-(5-(5-Ethoxypyridin-2-yl)-4-(5-methylthiophen-2-yl)-4H-1,2,4-triazol-3-yl)cyclobutyl)-7-fluoro-1,5-naphthyridine-4-carboxamide]: the IC50 was found to be 1.6 nM in experiment [1] and 1 nM in experiment [2] (setting [3]).
As to `O=C(N[C@H]1C[C@H](c2nnc(-c3ccccc3)n2-c2ccccc2F)C1)c1ccccn1` [Compound 9, N-(trans-3-(4-(2-Fluorophenyl)-5-phenyl-4H-1,2,4-triazol-3-yl)cyclobutyl)picolinamide], the IC50 in experiment [1] is 220 nM and 216 nM; in experiment [2] (setting [3]), 789 nM.
Take `CCOc1ccc(-c2nnc([C@H]3C[C@H](NC(=O)c4cccc5ncc(C)nc45)C3)n2-c2ccccc2F)nc1` [Compound 26, N-(trans-3-(5-(5-Ethoxypyridin-2-yl)-4-(2-fluorophenyl)-4H-1,2,4-triazol-3-yl)cyclobutyl)-3-methylquinoxaline-5-carboxamide]: the IC50 in experiment [1] worked out at 1.5 nM; in experiment [2] (setting [3]), 2.2 nM.
`CCOc1ccc(-c2nnc([C@H]3C[C@H](NC(=O)c4cccc5nc(C)c(C)nc45)C3)n2-c2ccccc2F)nc1` [Compound 28, N-(trans-3-(5-(5-Ethoxypyridin-2-yl)-4-(2-fluorophenyl)-4H-1,2,4-triazol-3-yl)cyclobutyl)-2,3-dimethylquinoxaline-5-carboxamide]: the IC50 in experiment [1] is 2.6 nM; in experiment [2] (setting [3]), 4.3 nM.
On the same counts, the results for `CCOc1ccc(-c2nnc([C@H]3C[C@H](NC(=O)c4ccnc5cccnc45)C3)n2-c2ccncc2)nc1` [Compound 18a, N-(trans-3-(5-(5-Ethoxypyridin-2-yl)-4-(pyridin-4-yl)-4H-1,2,4-triazol-3-yl)cyclobutyl)-1,5-naphthyridine-4-carboxamide] are 5.4 nM and 13 nM.
In the case of `O=C(N[C@H]1C[C@H](c2nnc(-c3ccc(OC4CC4)cn3)n2-c2ccccc2F)C1)c1ccccn1` [Compound 7, N-(trans-3-(5-(5-Cyclopropoxypyridin-2-yl)-4-(2-fluorophenyl)-4H-1,2,4-triazol-3-yl)cyclobutyl)picolinamide], the IC50 amounted to 8.6 nM in experiment [1] and 49 nM in experiment [2] (setting [3]).
On the same counts, the results for `CCOc1ccc(-c2nnc([C@H]3C[C@H](NC(=O)c4ccccn4)C3)n2-c2ccc(Cl)s2)nc1` [Compound 14, N-(trans-3-(4-(5-Chlorothiophen-2-yl)-5-(5-ethoxypyridin-2-yl)-4H-1,2,4-triazol-3-yl)cyclobutyl)picolinamide] are 12 nM and 27 nM.
On the same counts, the results for `O=C(N[C@H]1C[C@H](c2nnc(-c3cnccn3)n2-c2ccccc2F)C1)c1ccccn1` [Compound 10, N-(trans-3-(4-(-2-Fluorophenyl)-5-(pyrazin-2-yl)-4H-1,2,4-triazol-3-yl)cyclobutyl)picolinamide] are 93 nM and 355 nM.
`CCOc1ccc(-c2nnc(C34CC(NC(=O)c5ccnc6cccnc56)(C3)C4)n2-c2ccncc2)nc1` [Compound 21, N-(3-(5-(5-Ethoxypyridin-2-yl)-4-(pyridin-4-yl)-4H-1,2,4-triazol-3-yl)bicyclo[1.1.1]pentan-1-yl)-1,5-naphthyridine-4-carboxamide]: the IC50 in experiment [1] was determined as 9.4 nM; in experiment [2] (setting [5]) it was 43 nM.
Consider `O=C(N[C@H]1C[C@H](c2nnc(-c3ccc(OC(F)F)cn3)n2-c2ccccc2F)C1)c1cccc2nccnc12` [Compound 29a, N-(trans-3-(5-(5-(Difluoromethoxy)pyridin-2-yl)-4-(2-fluorophenyl)-4H-1,2,4-triazol-3-yl)cyclobutyl)quinoxaline-5-carboxamide], for which the IC50 was 1.9 nM in experiment [1] and 1.2 nM in experiment [2] (setting [3]).
Take `CCOc1ccc(-c2nnc(C34CC(NC(=O)c5ccnc6cccnc56)(C3)C4)n2-c2ccccn2)nc1` [Compound 19, N-(3-(5-(5-Ethoxypyridin-2-yl)-4-(pyridin-2-yl)-4H-1,2,4-triazol-3-yl)bicyclo[1.1.1]pentan-1-yl)-1,5-naphthyridine-4-carboxamide]: the results for the IC50 in experiment [1] and in experiment [2] (setting [5]) were 13 nM and 20 nM, respectively.
